Here are results for 6 compounds from ChEMBL document CHEMBL1154563, “Flavonol-cinnamate cycloadducts and diamide derivatives from Aglaia laxiflora” (J Nat Prod, 2000).

In brackets after ≈: the same amount, converted by molar mass. Activity calls are given as the source filed them. No cut-off for these calls is given here.

The subject of one assay is P388. Description: Cytotoxicity against mouse P388 cells. It is filed as functional, cell-based.
For a further assay, the system named is MOLT-4. Description: Cytotoxicity against human MOLT4 cells. The assay is classed as functional, cell-based.
Assay [1] is described as follows: Cytotoxicity against mouse LL/2 cells. The assay is classed as functional, cell-based, Lewis lung carcinoma.
The test system of a further assay is WEHI-164. Description: Cytotoxicity against mouse WEHI164 cells. The assay is classed as functional, cell-based.
In the next assay the test system is Jurkat. Description: Cytotoxicity against human Jurkat cells. It is filed as functional, cell-based.

Consider `CC[C@@](C)(O)C(=O)N[C@@H]1CCCN1C(=O)[C@@H]1[C@@H](c2ccccc2)[C@@]2(O)c3c(OC)cc(OC)cc3O[C@]1(c1ccc(OC)cc1)[C@H]2OC(C)=O`, for which the result in the assay on P388 and with MOLT-4 was inactive.

A word on the IC50: it is the concentration that gives 50% inhibition. Take `COc1ccc([C@@]23Oc4cc(OC)cc(OC)c4[C@]2(O)[C@H](O)C[C@H]3c2ccccc2)cc1` [ROCAGLAOL]: the concentration for half-maximal inhibition (IC50) was less than 0.01 µg/mL in the assay on P388 (Mus musculus, P388, read-out: IC50); 0.034 µg/mL (≈ 0.0783 µM) in assay [1] (Mus musculus, Lewis lung carcinoma, read-out: IC50); 0.023 µg/mL (≈ 0.0529 µM) with WEHI-164.

Turning to `CC[C@@](C)(O)C(=O)N[C@@H]1CCCN1C(=O)[C@H]1[C@H](c2ccccc2)[C@]2(c3ccc(OC)cc3)Oc3cc(OC)cc(OC)c3[C@@]1(O)[C@H]2OC(C)=O`, the outcome with P388 and with MOLT-4 was inactive.

As to `CC[C@@](C)(O)C(=O)N[C@@H]1CCCN1C(=O)[C@@H]1[C@@H](c2ccccc2)[C@@]2(O)c3c(OC)cc(OC)cc3O[C@]1(c1ccc(OC)cc1)[C@H]2O`, the outcome in the assay with P388 and in the assay with MOLT-4 was inactive.

Turning to `COc1cc(OC)c2c(c1)O[C@@]1(c3ccc(OC)c(O[C@@H]4O[C@H](C)[C@@H](O)[C@H](OC)[C@@H]4OC(C)=O)c3)[C@H](c3ccccc3)C[C@@H](O)[C@@]21O`, the IC50 in the assay with P388 (p388) stood at 0.036 µg/mL (≈ 0.0552 µM); in the assay on Jurkat, 0.0022 µg/mL (≈ 0.00337 µM); in assay [1] (lewis lung carcinoma) it was 0.0042 µg/mL (≈ 0.00643 µM).

In the case of `CC[C@@](C)(O)C(=O)N[C@@H]1CCCN1C(=O)[C@@H]1[C@@H](c2ccccc2)[C@]2(c3ccc(OC)cc3)Oc3cc(OC)cc(OC)c3[C@@]1(O)[C@H]2OC(C)=O`, the result with P388 and in the assay on MOLT-4 was inactive.
